Measured values taken from US20070185104A1, “Benzoxazole acetonitriles” (APPLIED RESEARCH SYSTEMS ARS HOLDING N.V., priority 2003, published 2007).

system: db/db mice; experiment: Experimental model of type II diabetes (oral postprandial glycemia in db/db mice); assay type: in vivo; conditions: p.o. 50 mg/kg, 4 hrs after drug administration, food intake after 20 h fasting, compared to vehicle Group 1
Procedure: b) In vivo Assay: Experimental Model of Type II Diabetes (Oral Postprandial Glycemia in db/db Mice)
The following assay aims at determining the anti-diabetic effect of the test compounds of formula (I) in a model of postprandial glycemia in db/db mice, in vivo.
The assay was performed as follows:
A total of 24 db/db mice (about 8-9 weeks; obtained from IFFACREDO, l'Arbreste, France) were fasted during 20 hours.
2 groups, each consisting of 6 animals were formed: • Group 1: The animals were administered (per os) a dose of 10 mg/kg of vehicle. • Group 2: The animals were administered (per os) a dose of 50 mg/kg of the test compound according to formula (I).
After oral administration of the compounds of formula (I) solubilized or suspended in CarboxyMethylCellulose (0.5%), Tween 20 (0.25%) and water as vehicle, the animals had access to commercial food (D04, UAR, Villemoisson/Orge, France) ad libitum. The diabetic state of the mice was verified by determining the blood glucose level before drug administration. Blood glucose and serum insulin levels were then determined 4 hrs after drug administration.
The determination of the blood glucose level was performed using a glucometer (Precision Q.I.D., Medisense, Abbot, ref. 212.62.31). […]
Changes in blood glucose and serum insulin of drug treated mice were expressed as a percentage of control (group 1: vehicle treated mice).

| Structure (SMILES) | blood glucose level reduced (percentage of vehicle control) |
| --- | --- |
| N#C/C(=C1\Nc2ccccc2O1)c1ccnc(NCCCN2CCCC2=O)n1 [Example 5, 1,3-benzoxazol-2(3H)-ylidene(2-{[3-(2-oxopyrrolidin-1-yl)propyl]amino}pyrimidin-4-yl)acetonitrile] | about 25% |

same assay, conditions: p.o. 50 mg/kg, serum insulin 4 hrs after drug administration, compared to vehicle Group 1

| Structure (SMILES) | insulin level reduced (percentage of vehicle control) |
| --- | --- |
| N#C/C(=C1\Nc2ccccc2O1)c1ccnc(NCCCN2CCCC2=O)n1 [Example 5, 1,3-benzoxazol-2(3H)-ylidene(2-{[3-(2-oxopyrrolidin-1-yl)propyl]amino}pyrimidin-4-yl)acetonitrile] | about 11% |

biological target: human GSK3 beta (Homo sapiens, UniProt P49841); experiment: GSK3β in vitro assay (33P-ATP phosphorylation of phospho GS2 peptide); assay type: biochemical; conditions: In vitro potency on human GSK3 beta; read-out: IC50 (μM) GSK3beta
Sequence (P49841 whole entry): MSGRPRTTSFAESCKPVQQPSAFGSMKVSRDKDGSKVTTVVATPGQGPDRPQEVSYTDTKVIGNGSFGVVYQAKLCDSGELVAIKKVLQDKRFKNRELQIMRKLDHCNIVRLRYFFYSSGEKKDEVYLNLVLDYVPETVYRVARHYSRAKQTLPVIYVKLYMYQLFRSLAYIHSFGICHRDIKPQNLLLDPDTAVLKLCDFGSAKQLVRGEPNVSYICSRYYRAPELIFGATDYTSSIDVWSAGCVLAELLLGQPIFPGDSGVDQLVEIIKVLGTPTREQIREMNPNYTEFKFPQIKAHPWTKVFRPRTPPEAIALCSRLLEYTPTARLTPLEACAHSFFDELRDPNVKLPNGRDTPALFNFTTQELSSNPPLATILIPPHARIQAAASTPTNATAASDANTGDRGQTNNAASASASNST
Procedure: GSK3β Assay (see Bioorg. Med. Chem. Lett by Naerum et al. 12 p. 1525-1528 (2002))
In a final reaction volume of 25 μl, GSK3β (h) (5-10 mU) is incubated with 8 mM MOPS pH 7.0, 0.2 mM EDTA, 20 μM […](p)EDEEE (being the GSK3 substrate; a phospho GS2 peptide), 10 mM Mg Acetate and [γ-^33P-ATP] (Specific activity approx. 500 cpm/pmol, concentration as required). The reaction is initiated by the addition of Mg^2+ [γ-^33P-ATP]. After incubation for 40 minutes at room temperature, the reaction is stopped by the addition of 5 μl of a 3% phosphoric acid solution. 10 μl of the reaction is then spotted onto a P30 filtermat and washed three times for 5 minutes in 50 mM phosphoric acid and once in methanol prior to drying and the degree of phosphorylation of the substrate is determined by scintillation counting.

| Structure (SMILES) | IC50 [µM] |
| --- | --- |
| CC(C)OCCCNc1nccc(/C(C#N)=C2/Nc3ccccc3O2)n1 [Example 42, 1,3-benzoxazol-2(3H)-ylidene{2-[(3-isopropoxypropyl)amino]pyrimidin-4-yl}acetonitrile] | < 10 |
| CC(=O)N1CCN(C(=O)CCCNc2nccc(/C(C#N)=C3\Nc4ccccc4O3)n2)CC1 [Example 70, (2-{[4-(4-acetyl-1-piperazinyl)-4-oxobutyl]amino}-4-pyrimidinyl)(1,3-benzoxazol-2(3H)-ylidene)ethanenitrile] | < 10 |
| CN(C)CCCC(=O)Nc1nccc(/C(C#N)=C2/Nc3ccccc3O2)n1 [Example 89, N-{4-[1,3-benzoxazol-2(3H)-ylidene(cyano)methyl]-2-pyrimidinyl}-4-(dimethylamino)butanamide] | < 10 |
| CCN1CCN(c2cc(/C(C#N)=C3/Nc4ccccc4O3)ncn2)CC1 [Example 49, 1,3-benzoxazol-2(3H)-ylidene[6-(4-ethylpiperazin-1-yl)pyrimidin-4-yl]acetonitrile] | < 10 |
| Cc1cc(/C(C#N)=C2/Nc3ccccc3O2)nc(NCCCn2cncn2)n1 [Example 47] | < 10 |
| N#C/C(=C1\Nc2ccccc2O1)c1ccnc(NC2CC2)n1 [Example 10, 1,3-benzoxazol-2(3H)-ylidene[2-(cyclopropylamino)pyrimidin-4-yl]acetonitrile] | < 10 |
| N#C/C(=C1\Nc2ccccc2O1)c1ccnc(NCc2cccnc2)n1 [Example 41, 1,3-benzoxazol-2(3H)-ylidene{2-[(pyridin-3-ylmethyl)amino]pyrimidin-4-yl}acetonitrile] | < 10 |
